# Source: patent EP3722296B1, “DIHYDRONAPHTHYRIDINES AND RELATED COMPOUNDS USEFUL AS KINASE INHIBITORS FOR THE TREATMENT OF PROLIFERATIVE DISEASES” (Deciphera Pharmaceuticals, LLC, priority 2012, dated 2013)
# Experiments:
# Test in all cases: CHO K1 phospho-KIT ELISA
# Type in all cases: cell-based
# [1] = target: T1, WKV557-559 deletion/C557insertion/D820A (Homo sapiens, UniProt P10721, D820A/DEL557-558/V559C); conditions: transient transfected CHO K1 cells, phospho-c-KIT (Tyr719), read-out: KIT kinase domain mutations (primary/secondary): WKV557-559 deletion
# T1 construct: V5 (vector-encoded); expressed in transfected cells; host or cells: CHO K1
# Description: (§1) CHO K1 cells (catalog #CCL-61) were obtained from the American Type Culture Collection, Manassas, VA. […] Cells were allowed to expand until reaching 70-95% confluency at which point they were subcultured or harvested for assay use.
# (§2) Cells were then incubated overnight at 37°C, 5% CO2, 95% RH. Transfection-grade pcDNA3.2 V5 DEST expression vector containing KIT variant, Lipofectamine LTX Reagent, and PLUS reagent (Invitrogen, Carlsbad, CA) were diluted into Opti-MEM® I medium (Invitrogen, Carlsbad, CA). The tube was incubated at room temperature to allow formation of DNA-Lipofectamine LTX complexes. The DNA-lipofectamine LTX complex mix was added directly to each well and mixed gently. Eighteen hours post-transfection, medium was replaced with serum-free RPMI medium. A serial dilution of test compound was added, and plates were incubated for 4 hours at 37°C, 5% CO2, 95% RH. Cell lysates were prepared, then phospho-c-KIT (Tyr719) was measured by using a Human phospho-c-KIT ELISA kit (Cell Signaling, Beverly, MA). Data was analyzed using Prism software (Graphpad, San Diego, CA) to calculate IC50 values.
# [2] = target: T2, AY502 duplication/D816G KIT (Homo sapiens, UniProt P10721, D816G/DUP502-503); conditions: transient transfected CHO K1 cells, phospho-c-KIT (Tyr719), read-out: KIT kinase domain mutations (primary/secondary): AY502 duplication / D816G
# T2 construct: V5 (vector-encoded); expressed in transfected cells; host or cells: CHO K1
# Description: as §1, §2
# V560D/N822K = target: T3, V560D/N822K (Homo sapiens, UniProt P10721, N822K/V560D); conditions: transient transfected CHO K1 cells, phospho-c-KIT (Tyr719), read-out: KIT kinase domain mutations (primary/secondary): V560D / N822K
# T3 construct: V5 (vector-encoded); expressed in transfected cells; host or cells: CHO K1
# T3 sequence (P10721 26-976 V560D/N822K): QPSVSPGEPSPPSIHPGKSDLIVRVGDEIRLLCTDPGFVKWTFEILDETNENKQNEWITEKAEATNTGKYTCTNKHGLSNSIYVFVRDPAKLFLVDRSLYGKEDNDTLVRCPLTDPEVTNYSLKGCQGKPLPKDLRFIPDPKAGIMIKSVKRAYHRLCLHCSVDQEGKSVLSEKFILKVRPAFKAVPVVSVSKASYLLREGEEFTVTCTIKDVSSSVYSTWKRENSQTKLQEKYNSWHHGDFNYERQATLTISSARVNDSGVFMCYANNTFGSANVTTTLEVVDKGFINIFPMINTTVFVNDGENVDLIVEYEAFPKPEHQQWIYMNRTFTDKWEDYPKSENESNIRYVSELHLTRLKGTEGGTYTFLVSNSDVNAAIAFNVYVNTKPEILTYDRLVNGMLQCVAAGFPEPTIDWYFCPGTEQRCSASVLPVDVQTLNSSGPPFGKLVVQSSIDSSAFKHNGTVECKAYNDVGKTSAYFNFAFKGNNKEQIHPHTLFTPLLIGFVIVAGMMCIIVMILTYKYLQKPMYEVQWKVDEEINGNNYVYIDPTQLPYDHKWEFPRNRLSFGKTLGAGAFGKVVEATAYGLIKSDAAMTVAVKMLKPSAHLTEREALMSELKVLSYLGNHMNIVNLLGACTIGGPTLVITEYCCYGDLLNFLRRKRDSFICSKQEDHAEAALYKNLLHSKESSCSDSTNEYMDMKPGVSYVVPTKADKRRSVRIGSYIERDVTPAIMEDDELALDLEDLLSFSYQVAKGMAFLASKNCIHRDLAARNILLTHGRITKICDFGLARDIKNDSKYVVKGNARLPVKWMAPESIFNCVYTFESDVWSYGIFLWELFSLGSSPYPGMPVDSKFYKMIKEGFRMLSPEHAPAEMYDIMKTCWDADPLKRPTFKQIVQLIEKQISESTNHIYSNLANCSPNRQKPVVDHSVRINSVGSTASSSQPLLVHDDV
# Description: as §1, §2
# T1 sequence (P10721 with tags, fused parts or gaps DEL557-558/V559C/D820A): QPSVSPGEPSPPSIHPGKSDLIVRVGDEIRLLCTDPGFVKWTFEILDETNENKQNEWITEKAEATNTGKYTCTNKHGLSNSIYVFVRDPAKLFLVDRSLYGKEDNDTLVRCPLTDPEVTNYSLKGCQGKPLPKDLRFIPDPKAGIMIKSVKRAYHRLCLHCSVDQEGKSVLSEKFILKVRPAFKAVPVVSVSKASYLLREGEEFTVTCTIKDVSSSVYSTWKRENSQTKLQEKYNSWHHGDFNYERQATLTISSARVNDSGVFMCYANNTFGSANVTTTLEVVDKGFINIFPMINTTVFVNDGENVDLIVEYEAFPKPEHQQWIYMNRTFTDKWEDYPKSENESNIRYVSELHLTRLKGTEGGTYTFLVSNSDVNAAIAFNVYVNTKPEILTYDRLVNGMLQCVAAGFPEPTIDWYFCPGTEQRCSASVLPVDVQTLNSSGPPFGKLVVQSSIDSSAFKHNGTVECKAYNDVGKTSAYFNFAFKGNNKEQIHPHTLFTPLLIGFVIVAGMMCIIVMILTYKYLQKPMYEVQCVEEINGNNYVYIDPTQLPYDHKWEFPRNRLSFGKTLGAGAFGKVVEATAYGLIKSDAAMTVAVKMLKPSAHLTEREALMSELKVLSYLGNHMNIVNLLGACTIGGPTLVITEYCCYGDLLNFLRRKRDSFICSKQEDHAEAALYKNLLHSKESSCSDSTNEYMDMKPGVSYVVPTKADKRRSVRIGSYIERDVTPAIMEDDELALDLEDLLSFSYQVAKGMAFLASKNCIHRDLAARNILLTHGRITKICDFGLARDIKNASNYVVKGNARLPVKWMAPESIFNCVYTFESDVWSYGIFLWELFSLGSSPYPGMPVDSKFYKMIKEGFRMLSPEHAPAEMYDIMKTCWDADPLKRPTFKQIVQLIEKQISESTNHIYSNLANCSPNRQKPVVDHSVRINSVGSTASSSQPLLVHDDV
# T2 sequence (P10721 with tags, fused parts or gaps DUP502-503/D816G): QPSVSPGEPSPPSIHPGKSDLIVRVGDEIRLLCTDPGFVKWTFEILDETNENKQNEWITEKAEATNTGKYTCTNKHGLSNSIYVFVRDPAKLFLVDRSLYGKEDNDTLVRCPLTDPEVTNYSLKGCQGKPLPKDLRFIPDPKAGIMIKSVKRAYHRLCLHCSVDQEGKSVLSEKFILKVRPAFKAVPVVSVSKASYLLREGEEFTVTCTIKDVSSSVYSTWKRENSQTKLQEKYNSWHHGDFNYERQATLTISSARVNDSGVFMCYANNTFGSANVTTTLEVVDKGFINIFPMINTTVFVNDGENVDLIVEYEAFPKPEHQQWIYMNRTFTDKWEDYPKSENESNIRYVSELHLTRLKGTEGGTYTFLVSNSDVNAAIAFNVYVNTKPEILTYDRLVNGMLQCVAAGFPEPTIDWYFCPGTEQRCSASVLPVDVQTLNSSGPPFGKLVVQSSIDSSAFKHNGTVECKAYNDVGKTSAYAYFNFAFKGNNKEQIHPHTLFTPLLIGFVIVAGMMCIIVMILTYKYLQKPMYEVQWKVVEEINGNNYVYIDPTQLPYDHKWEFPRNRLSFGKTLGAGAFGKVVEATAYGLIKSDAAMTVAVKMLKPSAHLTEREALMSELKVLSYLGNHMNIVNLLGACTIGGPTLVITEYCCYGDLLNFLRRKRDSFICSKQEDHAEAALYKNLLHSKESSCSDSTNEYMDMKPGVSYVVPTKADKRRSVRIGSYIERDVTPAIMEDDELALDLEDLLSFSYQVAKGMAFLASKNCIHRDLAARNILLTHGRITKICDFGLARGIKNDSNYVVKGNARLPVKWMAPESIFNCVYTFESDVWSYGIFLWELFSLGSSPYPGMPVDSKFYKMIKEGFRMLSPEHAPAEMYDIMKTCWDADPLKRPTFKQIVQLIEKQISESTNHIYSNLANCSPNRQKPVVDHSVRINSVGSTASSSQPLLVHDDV
IC50 [1] [nM],IC50 [2] [nM],IC50 (V560D/N822K) [nM],SMILES
10 to 100,10 to 100,10 to 100,"CCn1c(=O)c(-c2cc(NC(=O)Nc3ccccc3)c(F)cc2C)cc2cnc(NC)cc21 [Example 23, 1-(5-(1-ethyl-7-(methylamino)-2-oxo-1,2-dihydro-1,6-naphthyridin-3-yl)-2-fluoro-4-methylphenyl)-3-phenylurea]"
< 10,–,< 10,"CCn1c(=O)c(-c2cc(NC(=O)Nc3csc4ccccc34)c(F)cc2C)cc2cnc(NC)cc21 [Example 59, 1-(benzo[b]thiophen-3-yl)-3-(5-(1-ethyl-7-(methylamino)-2-oxo-1,2-dihydro-1,6-naphthyridin-3-yl)-2-fluoro-4-methylphenyl)urea]"
